Consider nine compounds from US11667645B2, “Granzyme B directed imaging and therapy” (CytoSite Biopharma Inc., priority 2018, dated 2023).

Some results are limits rather than exact numbers.

For orientation: IC50 means the concentration at which inhibition is half-maximal.

Chain of Granzyme B (human lymphocytes) (P10144 21-247): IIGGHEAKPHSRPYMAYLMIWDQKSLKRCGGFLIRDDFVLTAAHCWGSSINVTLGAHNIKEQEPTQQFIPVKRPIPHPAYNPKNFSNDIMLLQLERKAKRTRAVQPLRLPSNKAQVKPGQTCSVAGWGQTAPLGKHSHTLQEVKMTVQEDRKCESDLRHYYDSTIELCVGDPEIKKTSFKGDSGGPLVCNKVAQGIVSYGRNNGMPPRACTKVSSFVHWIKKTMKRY

In this test the target is Granzyme B (human lymphocytes) (Homo sapiens (Human), UniProt P10144). The test can be described thus: human Granzyme B biochemical assay. The following applies: Granzyme B (human lymphocytes) 5 nM, substrate Ac-IETD-AFC 200 μM, Cpd incubation with enzyme 30 mins, 22° C., read time 60 mins; read-out: IC50. In a few lines:
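Fluorogenic Ac-IETD-AFC cleavage (Ex 400/Em 505 nm) read after 60 min at 22 °C, following 30 min, 22 °C enzyme–compound pre-incubation. Working stocks: enzyme 10 nM in 0.1% BSA buffer, substrate 800 µM, compound 8 points, 3.16-fold from 40 µM. Controls set 0% (DMSO) and 100% (standard inhibitor) inhibition; IC50 fitted.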
As for `CC([C@H](NC(=O)c1ccccc1)C(=O)N[C@H]1CCc2cccc3c2N(C1=O)[C@H](C(=O)NCc1c[nH]nn1)C3)C(F)(F)F` (stereo partly drawn) [Compound C055, (2S,5S)-5-((S)-2-Benzoylamino-4,4,4-trifluoro-3-methyl-butyrylamino)-4-oxo-1,2,4,5,6,7-hexahydro-azepino[3,2,1-hi]indole-2-carboxylic acid (1H-[1,2,3]triazol-4-ylmethyl)-amide], the concentration for half-maximal inhibition (IC50) was 1 to 300 nM.
Consider `CC[C@H](C)[C@H](NC(=O)c1cccc(OC)c1)C(=O)N[C@H]1CCc2cccc3c2N(C1=O)[C@H](C(=O)NCc1c[nH]nn1)C3` [Compound C061, (2S,5S)-5-[(2S,3S)-2-(3-Methoxy-benzoylamino)-3-methyl-pentanoylamino]-4-oxo-1,2,4,5,6,7-hexahydro-azepino[3,2,1-hi]indole-2-carboxylic acid(1H-[1,2,3]triazol-4-ylmethyl)-amide], for which the IC50 was 1 to 300 nM.
In the case of `CC(C)[C@H](NC(=O)c1ccccn1)C(=O)N[C@H]1CCc2cccc3c2N(C1=O)[C@H](C(=O)NCc1c[nH]nn1)C3` [Compound C069, (2S,5S)-5-{(S)-3-Methyl-2-[(pyridine-2-carbonyl)-amino]-butyrylamino}-4-oxo-1,2,4,5,6,7-hexahydro-azepino[3,2,1-hi]indole-2-carboxylic acid (1H-[1,2,3]triazol-4-ylmethyl)-amide], the IC50 lay within 1 to 300 nM.
On to `CC(C)[C@H](NC(=O)c1cccc(F)c1)C(=O)N[C@H]1CCc2cccc3c2N(C1=O)[C@H](C(=O)NCc1c[nH]nn1)C3` [Compound C048, (2S,5S)-5-[(S)-2-(3-Fluoro-benzoylamino)-3-methyl-butyrylamino]-4-oxo-1,2,4,5,6,7-hexahydro-azepino[3,2,1-hi]indole-2-carboxylic acid (1H-[1,2,3]triazol-4-ylmethyl)-amide], for which the IC50 was in the range of 1 to 300 nM.
As to `O=C(O)CC[C@H](NC(=O)c1ccccc1)C(=O)N[C@H]1CCc2cccc3c2N(C1=O)[C@H](C(=O)NCc1c[nH]nn1)C3` [Compound C041, (S)-4-Benzoylamino-4-{(2S,5S)-4-oxo-2-[(1H-[1,2,3]triazol-4-ylmethyl)-carbamoyl]-1,2,4,5,6,7-hexahydro-azepino[3,2,1-hi]indol-5-ylcarbamoyl}-butyric acid], the IC50 is more than 5000 nM.
As to `CC[C@H](C)[C@H](NC(=O)COCCF)C(=O)N[C@H]1CS(=O)(=O)c2cccc3c2N(C1=O)[C@H](C(=O)NCc1c[nH]nn1)C3` [Compound C172, (1S,8R)-8-{(2S,3S)-2-[2-(2-Fluoro-ethoxy)-acetylamino]-3-methyl-pentanoylamino}-6,6,9-trioxo-1,2,6,7,8,9-hexahydro-6lambda*6*- thia-9a-aza-benzo[cd]azulene-1-carboxylic acid (1H-[1,2,3]triazol-4-ylmethyl)-amide], the IC50 was in the range of 301 to 1000 nM.
The result for `O=C(N[C@@H](Cc1ccc(O)cc1)C(=O)N[C@H]1CCc2cccc3c2N(C1=O)[C@H](C(=O)NCc1c[nH]nn1)C3)c1ccccc1` [Compound C042, (2S,5S)-5-[(S)-2-Benzoylamino-3-(4-hydroxy-phenyl)-propionylamino]-4-oxo,2,4,5,6,7-hexahydro-azepino[3,2,1-hi]indole-2-carboxylic acid (1H-[1,2,3]triazol-4-ylmethyl)-amide] reads more than 5000 nM.
Turning to `O=C(CNC(=O)c1ccccc1)N[C@H]1CCc2cccc3c2N(C1=O)[C@H](C(=O)NCc1c[nH]nn1)C3` [Compound C034, (2S,5S)-5-(2-Benzoylamino-acetylamino)-4-oxo-1,2,4,5,6,7-hexahydro-azepino[3,2,1-hi]indole-2-carboxylic acid (1H-[1,2,3]triazol-4-ylmethyl)-amide], the IC50 was more than 5000 nM.
Take `CC[C@H](C)[C@H](NC(=O)COCCF)C(=O)N[C@H]1CCc2cccc3c2N(C1=O)[C@H](C(=O)NCc1cc(O)n[nH]1)C3` [Compound C166, (2S,5S)-5-{(2S,3S)-2-[2-(2-Fluoro-ethoxy)-acetylamino]-3-methyl-pentanoylamino}-4-oxo-1,2,4,5,6,7-hexahydro-azepino[3,2,1-hi]indole-2-carboxylic acid (5-hydroxy-2H-pyrazol-3-ylmethyl)-amide]: the IC50 was 1000 to 5000 nM.
